Common to all, as to assay type: biochemical
For test [1], the target named is INSR (Homo sapiens, UniProt P06213). In words: Activity against various protein tyrosine kinases: INSR.
The target in test [2] is T1, Flt3(D835Y) (Homo sapiens, UniProt P36888, D835Y).
T1 sequence (P36888 27-993 D835Y): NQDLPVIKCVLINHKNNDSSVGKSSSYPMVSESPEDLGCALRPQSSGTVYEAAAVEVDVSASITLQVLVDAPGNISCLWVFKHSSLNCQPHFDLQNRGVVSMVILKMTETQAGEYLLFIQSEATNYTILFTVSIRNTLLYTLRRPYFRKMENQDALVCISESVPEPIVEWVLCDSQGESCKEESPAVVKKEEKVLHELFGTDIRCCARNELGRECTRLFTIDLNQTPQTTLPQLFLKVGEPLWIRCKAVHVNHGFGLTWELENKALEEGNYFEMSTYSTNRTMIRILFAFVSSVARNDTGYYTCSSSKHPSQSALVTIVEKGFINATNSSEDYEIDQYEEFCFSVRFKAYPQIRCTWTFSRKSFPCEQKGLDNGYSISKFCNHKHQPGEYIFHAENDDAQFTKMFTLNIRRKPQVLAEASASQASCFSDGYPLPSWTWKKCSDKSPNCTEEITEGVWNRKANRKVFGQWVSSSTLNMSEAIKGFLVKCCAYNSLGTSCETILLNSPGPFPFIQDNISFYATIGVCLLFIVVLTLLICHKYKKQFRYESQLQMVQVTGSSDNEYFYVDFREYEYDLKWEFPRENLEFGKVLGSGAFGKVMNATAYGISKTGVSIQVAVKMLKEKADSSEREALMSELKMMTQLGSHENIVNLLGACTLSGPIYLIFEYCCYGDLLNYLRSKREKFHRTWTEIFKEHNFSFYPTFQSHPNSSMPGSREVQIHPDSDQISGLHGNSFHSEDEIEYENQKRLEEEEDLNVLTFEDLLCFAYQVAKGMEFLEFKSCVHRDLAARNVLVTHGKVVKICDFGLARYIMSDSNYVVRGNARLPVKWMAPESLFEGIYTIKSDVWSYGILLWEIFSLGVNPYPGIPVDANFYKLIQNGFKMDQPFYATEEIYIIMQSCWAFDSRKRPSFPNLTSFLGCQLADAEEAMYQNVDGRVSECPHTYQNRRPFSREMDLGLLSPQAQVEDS
In words: Activity against various protein tyrosine kinases: Flt3(D835Y). How it is done: Using techniques know those of ordinary skill in the art, compounds were tested for activity against various protein tyrosine kinases.

For test [3], the target named is PKA (Homo sapiens, UniProt P17612). The experiment in a line: Activity against various protein tyrosine kinases: PKA.
The target of test [4] is HCK (Homo sapiens, UniProt P08631). The experiment in a line: Activity against various protein tyrosine kinases: HCK.
Chain of HCK (P08631 whole entry, species assumed): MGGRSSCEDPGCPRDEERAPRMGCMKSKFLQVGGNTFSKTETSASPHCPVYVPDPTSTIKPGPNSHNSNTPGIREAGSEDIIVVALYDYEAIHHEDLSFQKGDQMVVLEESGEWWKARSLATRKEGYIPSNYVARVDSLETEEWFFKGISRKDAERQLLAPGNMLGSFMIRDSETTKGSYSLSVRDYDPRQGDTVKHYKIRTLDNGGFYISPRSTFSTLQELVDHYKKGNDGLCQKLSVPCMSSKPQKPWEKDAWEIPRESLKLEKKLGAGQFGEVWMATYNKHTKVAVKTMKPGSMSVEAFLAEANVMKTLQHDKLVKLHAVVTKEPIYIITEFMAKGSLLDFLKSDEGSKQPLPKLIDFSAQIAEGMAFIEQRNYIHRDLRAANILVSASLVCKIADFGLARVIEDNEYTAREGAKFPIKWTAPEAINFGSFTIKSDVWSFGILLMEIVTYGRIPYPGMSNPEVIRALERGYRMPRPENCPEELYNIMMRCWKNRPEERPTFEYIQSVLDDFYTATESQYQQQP
Test [5] deals with FYN (Homo sapiens, UniProt P06241). In words: Activity against various protein tyrosine kinases: FYN.
Chain of FYN (P06241 whole entry, species assumed): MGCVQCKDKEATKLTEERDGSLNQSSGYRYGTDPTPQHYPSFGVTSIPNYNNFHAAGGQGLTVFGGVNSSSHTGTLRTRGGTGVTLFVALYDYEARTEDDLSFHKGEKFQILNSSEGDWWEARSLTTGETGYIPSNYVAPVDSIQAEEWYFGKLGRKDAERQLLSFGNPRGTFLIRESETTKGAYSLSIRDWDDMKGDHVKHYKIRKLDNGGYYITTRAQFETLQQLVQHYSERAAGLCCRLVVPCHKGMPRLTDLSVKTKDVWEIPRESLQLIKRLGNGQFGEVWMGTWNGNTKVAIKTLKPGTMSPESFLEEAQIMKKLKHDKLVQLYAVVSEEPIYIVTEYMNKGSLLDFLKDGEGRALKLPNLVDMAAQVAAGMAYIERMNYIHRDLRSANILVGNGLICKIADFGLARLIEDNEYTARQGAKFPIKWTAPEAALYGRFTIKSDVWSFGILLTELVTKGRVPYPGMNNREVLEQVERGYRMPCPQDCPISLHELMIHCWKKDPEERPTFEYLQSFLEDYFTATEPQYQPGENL
The target of test [6] is MAPKAPK2 (Homo sapiens, UniProt P49137). The experiment in a line: Activity against various protein tyrosine kinases: MAPKAPK2.
Chain of MAPKAPK2 (P49137 whole entry, species assumed): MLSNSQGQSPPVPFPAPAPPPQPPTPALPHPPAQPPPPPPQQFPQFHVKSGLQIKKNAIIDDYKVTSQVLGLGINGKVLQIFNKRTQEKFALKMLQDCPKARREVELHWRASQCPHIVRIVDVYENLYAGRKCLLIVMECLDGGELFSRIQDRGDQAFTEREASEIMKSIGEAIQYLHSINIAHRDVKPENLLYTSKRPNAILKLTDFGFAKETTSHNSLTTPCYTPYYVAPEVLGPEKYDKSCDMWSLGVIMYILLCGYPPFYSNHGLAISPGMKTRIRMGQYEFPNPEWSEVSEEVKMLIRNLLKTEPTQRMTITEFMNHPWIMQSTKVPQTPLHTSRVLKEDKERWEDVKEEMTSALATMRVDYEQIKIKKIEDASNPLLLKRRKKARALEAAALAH
Test [7] has as its target Erk1 (Homo sapiens, UniProt P27361). The experiment in a line: Activity against various protein tyrosine kinases: Erk1.
Test [8] concerns the target AKT2 (Homo sapiens, UniProt P31751). The experiment in a line: Activity against various protein tyrosine kinases: AKT2.
Test [9] addresses p38-beta2 (Homo sapiens, UniProt Q15759). In words: Activity against various protein tyrosine kinases: p38-beta2.
Test [10] has as its target T2, CHK1 (Homo sapiens, UniProt O14757).
T2 sequence (O14757 1-476): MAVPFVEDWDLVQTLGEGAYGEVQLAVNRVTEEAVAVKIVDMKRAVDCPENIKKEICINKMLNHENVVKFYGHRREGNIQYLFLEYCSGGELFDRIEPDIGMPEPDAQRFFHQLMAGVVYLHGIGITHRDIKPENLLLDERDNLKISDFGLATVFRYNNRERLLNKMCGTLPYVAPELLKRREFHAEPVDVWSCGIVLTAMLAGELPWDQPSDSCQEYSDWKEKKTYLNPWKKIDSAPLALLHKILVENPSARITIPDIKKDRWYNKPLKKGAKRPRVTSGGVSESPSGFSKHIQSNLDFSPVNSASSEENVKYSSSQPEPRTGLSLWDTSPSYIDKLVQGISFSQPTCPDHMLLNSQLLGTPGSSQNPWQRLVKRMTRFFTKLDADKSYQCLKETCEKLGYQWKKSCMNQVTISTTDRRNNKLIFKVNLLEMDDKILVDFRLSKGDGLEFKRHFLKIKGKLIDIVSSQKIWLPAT
The experiment in a line: Activity against various protein tyrosine kinases: CHK1.

The target of test [11] is MSK1 (Homo sapiens, UniProt O75582). In words: Activity against various protein tyrosine kinases: MSK1.
Chain of MSK1 (O75582 whole entry, species assumed): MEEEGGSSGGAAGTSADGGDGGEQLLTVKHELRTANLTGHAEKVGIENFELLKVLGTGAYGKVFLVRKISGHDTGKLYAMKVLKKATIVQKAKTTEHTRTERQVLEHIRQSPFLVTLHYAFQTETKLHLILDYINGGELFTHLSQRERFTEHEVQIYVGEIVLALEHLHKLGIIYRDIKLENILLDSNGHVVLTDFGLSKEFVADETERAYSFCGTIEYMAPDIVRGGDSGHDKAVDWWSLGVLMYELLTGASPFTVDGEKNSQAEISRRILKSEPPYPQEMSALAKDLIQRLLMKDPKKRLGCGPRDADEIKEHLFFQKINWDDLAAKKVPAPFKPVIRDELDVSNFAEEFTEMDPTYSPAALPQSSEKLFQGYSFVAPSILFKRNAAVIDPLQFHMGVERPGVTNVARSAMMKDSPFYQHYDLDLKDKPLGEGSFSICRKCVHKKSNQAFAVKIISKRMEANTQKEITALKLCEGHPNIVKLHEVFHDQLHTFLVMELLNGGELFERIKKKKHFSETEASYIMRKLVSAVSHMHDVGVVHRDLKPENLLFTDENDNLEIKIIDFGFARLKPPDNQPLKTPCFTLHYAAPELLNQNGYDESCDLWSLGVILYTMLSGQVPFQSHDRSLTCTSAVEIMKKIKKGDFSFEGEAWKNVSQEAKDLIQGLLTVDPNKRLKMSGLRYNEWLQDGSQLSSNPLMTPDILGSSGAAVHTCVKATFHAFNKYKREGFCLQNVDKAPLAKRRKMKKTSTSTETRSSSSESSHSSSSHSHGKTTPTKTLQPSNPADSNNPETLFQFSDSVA
Test [12] has as its target RSK1 (Homo sapiens, UniProt Q15418). The experiment in a line: Activity against various protein tyrosine kinases: RSK1.

Chain of Erk1 (P27361 whole entry, species assumed): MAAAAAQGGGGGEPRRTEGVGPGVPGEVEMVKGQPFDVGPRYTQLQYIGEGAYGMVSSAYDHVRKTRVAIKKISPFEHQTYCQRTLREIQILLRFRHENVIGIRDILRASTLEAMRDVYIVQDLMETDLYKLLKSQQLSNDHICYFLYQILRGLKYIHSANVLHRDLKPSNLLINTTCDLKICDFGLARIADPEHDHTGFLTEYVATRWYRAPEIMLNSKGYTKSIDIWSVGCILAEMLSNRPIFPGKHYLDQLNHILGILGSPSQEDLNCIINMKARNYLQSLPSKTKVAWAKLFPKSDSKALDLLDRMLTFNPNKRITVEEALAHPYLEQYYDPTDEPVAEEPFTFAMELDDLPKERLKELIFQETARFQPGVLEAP
Chain of AKT2 (P31751 whole entry, species assumed): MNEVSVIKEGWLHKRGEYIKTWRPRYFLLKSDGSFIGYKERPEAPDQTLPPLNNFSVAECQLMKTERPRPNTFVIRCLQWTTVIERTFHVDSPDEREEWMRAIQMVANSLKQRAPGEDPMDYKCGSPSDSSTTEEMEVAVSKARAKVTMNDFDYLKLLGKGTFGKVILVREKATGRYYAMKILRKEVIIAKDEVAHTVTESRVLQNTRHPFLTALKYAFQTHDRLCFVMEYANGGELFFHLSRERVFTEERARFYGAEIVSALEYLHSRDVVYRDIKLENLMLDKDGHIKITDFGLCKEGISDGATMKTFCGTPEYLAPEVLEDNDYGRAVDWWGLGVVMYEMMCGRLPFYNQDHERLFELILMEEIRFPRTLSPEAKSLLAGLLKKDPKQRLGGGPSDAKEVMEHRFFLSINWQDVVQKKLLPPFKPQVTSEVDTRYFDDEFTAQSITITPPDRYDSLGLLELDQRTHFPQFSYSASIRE
Chain of p38-beta2 (Q15759 whole entry): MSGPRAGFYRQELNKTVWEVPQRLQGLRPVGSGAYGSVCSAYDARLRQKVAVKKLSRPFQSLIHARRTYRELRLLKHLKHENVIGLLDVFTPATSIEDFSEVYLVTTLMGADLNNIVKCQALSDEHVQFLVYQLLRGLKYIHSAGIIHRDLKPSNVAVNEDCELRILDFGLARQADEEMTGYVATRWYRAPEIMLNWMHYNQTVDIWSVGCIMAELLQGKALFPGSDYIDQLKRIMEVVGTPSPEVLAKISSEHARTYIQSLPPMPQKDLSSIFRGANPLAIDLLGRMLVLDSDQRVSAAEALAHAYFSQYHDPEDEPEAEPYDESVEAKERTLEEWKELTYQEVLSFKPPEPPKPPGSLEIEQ
Chain of INSR (P06213 28-1382, species assumed): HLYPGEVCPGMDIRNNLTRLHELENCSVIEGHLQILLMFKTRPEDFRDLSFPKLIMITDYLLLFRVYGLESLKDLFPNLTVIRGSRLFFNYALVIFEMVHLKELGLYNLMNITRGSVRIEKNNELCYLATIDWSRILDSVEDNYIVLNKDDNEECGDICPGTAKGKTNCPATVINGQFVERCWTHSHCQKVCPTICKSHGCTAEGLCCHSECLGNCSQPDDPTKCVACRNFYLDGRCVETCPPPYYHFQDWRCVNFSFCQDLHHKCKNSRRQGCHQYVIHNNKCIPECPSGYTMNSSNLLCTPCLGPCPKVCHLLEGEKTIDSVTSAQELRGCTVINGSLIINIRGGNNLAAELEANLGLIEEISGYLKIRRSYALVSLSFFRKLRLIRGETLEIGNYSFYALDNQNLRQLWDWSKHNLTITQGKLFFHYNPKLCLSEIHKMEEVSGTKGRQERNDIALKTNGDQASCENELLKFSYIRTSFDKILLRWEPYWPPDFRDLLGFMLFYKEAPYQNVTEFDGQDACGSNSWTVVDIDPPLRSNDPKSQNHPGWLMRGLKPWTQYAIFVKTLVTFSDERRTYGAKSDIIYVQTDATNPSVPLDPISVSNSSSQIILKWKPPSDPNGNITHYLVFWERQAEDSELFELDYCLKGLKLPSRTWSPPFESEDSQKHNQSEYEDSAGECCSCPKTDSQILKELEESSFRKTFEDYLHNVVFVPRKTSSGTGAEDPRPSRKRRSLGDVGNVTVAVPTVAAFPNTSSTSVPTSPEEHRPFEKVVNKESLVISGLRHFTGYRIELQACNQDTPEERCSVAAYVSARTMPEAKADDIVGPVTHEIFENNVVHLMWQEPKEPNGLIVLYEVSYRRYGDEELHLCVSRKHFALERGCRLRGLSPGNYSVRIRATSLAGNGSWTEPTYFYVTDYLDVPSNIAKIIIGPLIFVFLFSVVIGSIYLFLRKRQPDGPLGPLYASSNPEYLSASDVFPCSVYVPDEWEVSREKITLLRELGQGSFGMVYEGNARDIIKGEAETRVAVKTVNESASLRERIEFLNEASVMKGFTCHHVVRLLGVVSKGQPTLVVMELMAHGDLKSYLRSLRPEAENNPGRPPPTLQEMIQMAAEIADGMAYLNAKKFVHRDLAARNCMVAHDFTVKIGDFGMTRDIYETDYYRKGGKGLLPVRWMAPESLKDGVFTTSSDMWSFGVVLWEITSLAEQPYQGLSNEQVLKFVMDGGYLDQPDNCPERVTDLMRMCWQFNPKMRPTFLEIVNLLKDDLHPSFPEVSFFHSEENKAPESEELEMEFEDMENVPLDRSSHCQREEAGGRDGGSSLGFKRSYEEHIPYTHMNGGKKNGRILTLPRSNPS

In the case of `COCCOCCOCCNC(=O)OCCN1CCN(c2cc(Nc3ncc(C(=O)Nc4c(C)cccc4Cl)s3)nc(C)n2)CC1` [mPEG3-NHCOO-Dasatinib], the “% Inhibition at 10 nM” value in [1] came out at 1%; in test [2] it was 6%; in [3] it was 3%; in [4] it was 98%; in test [5] it was 98%; in test [6], 1%. Also, the “% Inhibition at 10 nM” value in test [7] is 3%; in test [8], 9%; in test [9] it was 3%; in test [10] it was −2%; in test [11], 2%; in test [12], 2%. For the same compound, the “% Inhibition at 1 μM” value in test [1] was −1%; in test [2], 10%; in [3], 0%; in test [4] it was 98%; in test [5] it was 99%; in test [6], −1%. In addition, the “% Inhibition at 1 μM” value in [7] worked out at 2%; in test [8], 7%; in test [9] it was 48%; in test [10] it was 0%; in test [11], 1%; in [12] it was 0%.

Consider `COCCOCCOCCOCCOCCOCCOCCNC(=O)OCCN1CCN(c2cc(Nc3ncc(C(=O)Nc4c(C)cccc4Cl)s3)nc(C)n2)CC1` [mPEG7-NHCOO-Dasatinib], for which the “% Inhibition at 10 nM” value was 2% in test [1]; 3% in [2]; 0% in test [3]; 98% in test [4]; 98% in test [5]; 3% in test [6]. Moreover, the “% Inhibition at 10 nM” value in test [7] amounted to 3%; in test [8], 3%; in test [9], 0%; in [10], 10%; in [11], 3%; in test [12] it was 0%. Besides, the “% Inhibition at 1 μM” value was 3% in test [1]; 7% in test [2]; 2% in [3]; 99% in test [4]; 98% in [5]; 7% in [6]. The “% Inhibition at 1 μM” value in test [7] is on record as 4%; in [8], 3%; in test [9], 35%; in test [10] it was 8%; in test [11], 5%; in test [12], 4%.

These data come from US9084828B2, “Oligomer-protein tyrosine kinase inhibitor conjugates” (Nektar Therapeutics, priority 2009, dated 2015).
